Data reported in patent publication US7026330B2, “Methods for treatment of acute lymphocytic leukemia” (The Children's Hospital of Philadelphia, priority 2002, dated 2006).
Entries after “also recorded” stand apart in the source; their conditions may differ. Like-named read-outs stand apart in the source and are kept apart here.

Legend:
[1] = test system: Eμ-RET+ mice with advanced leukemia; assay: RAD001 in the ALL mouse model; assay type: in vivo; details: daily oral administration
Source text: RAD001 inhibits growth >50–90% in ALL cell lines. Daily oral administration of RAD001 extends survival almost 4 fold in Eμ-RET+ mice with advanced leukemia (high white blood count, large nodal masses, and massive hepatosplenomegaly) as compared to untreated littermates.

ALL cell lines = assay: RAD001 growth suppression in ALL cells in vitro; assay type: cell-based
pro-B ALL cell line T309 = assay: Apoptosis assay (Annexin V-FITC, flow cytometry); assay type: cell-based, mouse; details: 72 hours, baseline 24%
Protocol: Apoptosis Assay. […] Levels of exposed phosphotidylserine on viable cells were measured using the ApoAlert Annexin V detection kit (Clontech, Palo Alto, Calif.). Cells were incubated with FITC-conjugated Annexin V, and log fluorescence intensity was analyzed by flow cytometry using a FACScan cytometer (Becton-Dickinson, Franklin Lakes, N.J.).

[2] = test system: steroid refractory severe acute GVHD; details: cited from earlier work
[3] = test system: Eμ-RET+ transgenic mouse derived cell lines, #83, T309, #289, #420.2; assay: MTT proliferation assay, ALL cell lines; assay type: cell-based
Protocol: (§1) Cell Preparation and Cell Culture Conditions. A single cell suspension of bone marrow or lymph nodes from leukemic Eμ-RET+ transgenic mice was prepared [Wasserman, 1998]. These ALL cells were maintained at 37° C. with 5% CO2 in RPMI-1640, L-Glutamine, 10 mM HEPES, 1 mM Sodium Pyruvate, 100 μM non-essential amino acids, 100 U/ml penicillin, 100 μg/ml streptomycin (GibCo-BRL, Rocksville, Md.), 50 μM 2-mercaptoethanol (FisherScientific, Fair Lawn, N.J.)+10% Fetal Calf Serum (HyClone, Logan, Utah)+10% Calf Serum (HyClone, Logan Utah) (C20 media) with 10 U/ml IL-7. Cell surface markers on these cells were determined by flow cytometry as described previously [Wasserman, 1998], and the phenotype was stable in culture over time.
(§2) Proliferation Assays. Cells were cultured in IL-7-free C20 media for 24 hours. […] Cell growth was assayed using methyl-thiazole-tetrazolin (MTT) [Mosmann, 1983]. After removing 50 μl media from each well, 10 μl MTT, 5 mg/ml, (Sigma, St. Louis, Mo.) was added to each sample and incubated for 4 hours. 150 μl 1% HCL/Isopropanol was added to each sample and mixed vigorously until all crystals dissolved. Absorbance was measured at OD595 using microplate spectrophotometer (Benchmark Microplate Reader, Bio-Rad Laboratories, Hercules, Calif.). Results are expressed as mean of absolute absorbance numbertreated sample divided by the mean of absolute absorbance numbercontrol sample. Results >1 indicates proliferation whereas results <1 indicates growth inhibition.

[4] = cited from earlier work; for trough concentration: Phase III studies with cyclosporine, steroid, or both; for mean time-to-peak concentration: oral
[5] = cited from earlier work
[6] = test system: Eμ-RET+ transgenic mice with overt disease; details: for Plt, mean / WBC, mean / Weight, mean: treated group
Protocol: Mice were assessed three times a week for overt signs of disease (enlarged lymph nodes, organomegaly, and anemia). […] Prior to randomization, easily accessible enlarged lymph nodes were biopsied for cell culture and further in vitro study. Peripheral blood for CBC with differential (HemaVet 850FS, Cell Technologies, Oxford, Conn.) and pK studies was obtained by eye bleeding at days 0, 7, 14 and then every other week until death. Peripheral blood as well as single cell suspension from bone marrow, lymph nodes and/or spleen was obtained at death. Weights were monitored three times a week. […] Animals were sacrificed when moribund. Event free survival (EFS) was determined from onset of disease until death, and analyzed using STATA 7.0 (STATA Corporation, College Park, Tex.).

#781 cell line = assay: MTT proliferation assay, cell line #781; assay type: cell-based, mouse; details: increasing rmIL-7 0–30 U/ml, no stroma, 4–5 days
Protocol: as §1
as §2, with “150 μl 1% HCL/Isopropanol was added to each sample and mixed vigorously until all crystals dissolved.” left out, “Results >1 indicates proliferation whereas results <1 indicates growth inhibition.” left out

ALL cell line #289 = assay: MTT proliferation assay, cell line #289; assay type: cell-based, mouse
Protocol: as §1, §2

YES proto-oncogene = assay: mRNA expression in ALL cells (Affymetrix MG-U74Av4 Genechips); assay type: cell-based; details: addition of IL-7
Source text: We found the most profound change in expression in the YES proto-oncogene, a member of the src family of kinases. […] However, the ability of IL-7 to reverse rapamycin-induced growth inhibition may involve other target proteins downstream of p70S6 kinase, such as p27kip1 or cdk2.

cell line #420.2 = assay: MTT proliferation assay, cell line #420.2; assay type: cell-based, mouse; details: increasing rmIL-7 0–30 U/ml, no stroma, 4–5 days
Protocol: as §1
as §2, with “150 μl 1% HCL/Isopropanol was added to each sample and mixed vigorously until all crystals dissolved.” left out, “Results >1 indicates proliferation whereas results <1 indicates growth inhibition.” left out

cell line #83 = assay: MTT proliferation assay, cell line #83; assay type: cell-based, mouse; details: increasing rmIL-7 0–30 U/ml, no stroma, 4–5 days
Protocol: as §1
as §2, with “150 μl 1% HCL/Isopropanol was added to each sample and mixed vigorously until all crystals dissolved.” left out, “Results >1 indicates proliferation whereas results <1 indicates growth inhibition.” left out

[7] = test system: phosphor-p70S6 kinase (Thr389); assay: Immunoblotting of p70S6 kinase in ALL cell line #289; assay type: cell-based, mouse; details: 4 hours
Protocol: Crude Lysate Preparation and Immunoblotting. […] After harvesting, cells were washed with ice cold PBS and then lysed in 100 μl of 1% Triton-X containing protease and phosphatase inhibitors (1 μg/ml apoprotinin, 1 μg/ml leupeptin, 1 mM […], 1 mM NaF, 0.1 mM AEBSF) at 4° C. for 5 minutes. Crude lysates were obtained by centrifugation (12,000 rpm at 4° C. for 20 minutes). Protein concentrations were determined using Bio-Rad Protein assay kit (Bio-Rad Laboratories, Hercules, Calif.). Equal amounts of protein were analyzed by 4–12% Tris-Bis gel electrophoresis and transferred to PVDF membranes (NuPage Invitrogen, Carlsbad, Calif.). Specific proteins were detected with anti-Phosphor-p70S6 kinase (Thr389) and anti-total p70S6 kinase antibodies (Cell Signaling Technologies, Beverly, Mass.) diluted in TTBS (1:500). Immunodetection was performed with horseradish peroxidase-conjugated anti-rabbit IgG and then developed by chemoluminescence (Amersham Pharmacia Biotech, Piscataway, N.J.). Immunoblots were stripped for reprobing by incubating immunoblots in stripping buffer (100 mM 2-mercaptoethanol, 2% sodium dodecyl sulphate, 62.5 mM Tris-HCl pH 6.7) for 30 minutes in 37° C. water bath with occasional agitation. […] Specific proteins were immunoblotted and detected as above.

cell line T309 = assay: MTT proliferation assay, cell line T309; assay type: cell-based, mouse; details: increasing rmIL-7 0–30 U/ml, no stroma, 4–5 days
Protocol: as §1
as §2, with “150 μl 1% HCL/Isopropanol was added to each sample and mixed vigorously until all crystals dissolved.” left out, “Results >1 indicates proliferation whereas results <1 indicates growth inhibition.” left out

A20 mature B cell line = assay: Proliferation of mature B cell line A20; assay type: cell-based; details: data not shown
Protocol: as §2

[8] = Mus musculus, 72 h, read-out: inhibition of growth

CO[C@H]1C[C@@H]2CC[C@@H](C)[C@@](O)(O2)C(=O)C(=O)N2CCCC[C@H]2C(=O)O[C@H]([C@H](C)C[C@@H]2CC[C@@H](OCCO)[C@H](OC)C2)CC(=O)[C@H](C)/C=C(\C)[C@@H](O)[C@@H](OC)C(=O)[C@H](C)C[C@H](C)/C=C/C=C/C=C/1C [RAD001, everolimus]
extension of survival vs untreated littermates [1]: ~4 fold
nodal masses [1]: disappearance of nodal masses
peripheral WBC counts [1]: normalization of peripheral WBC counts
growth inhibition (ALL cell lines): 50–90%

CO[C@H]1C[C@@H]2CC[C@@H](C)[C@@](O)(O2)C(=O)C(=O)N2CCCC[C@H]2C(=O)O[C@H]([C@H](C)C[C@@H]2CC[C@@H](O)[C@H](OC)C2)CC(=O)[C@H](C)/C=C(\C)[C@@H](O)[C@@H](OC)C(=O)[C@H](C)C[C@H](C)/C=C/C=C/C=C/1C [rapamycin]
cells labeled with Annexin V (pro-B ALL cell line T309; 1 ng/ml rapamycin): 44%
cells labeled with Annexin V (pro-B ALL cell line T309; 100 ng/ml rapamycin): 51%
discontinuation of drug because of toxicities ([2]; 21 patients): 5 patients
hemolytic uremic syndrome developed ([2]; cyclosporine dose not reduced): 5 patients
most common side effects ([2]; in vivo): thrombocytopenia and neutropenia, elevated serum triglycerides and cholesterol
inhibition at 0.001 µg/mL [3, 8]: > 40%
inhibition at 0.1 µg/mL [3, 8]: > 70%
trough concentration ([4]; 2 mg/day): 8.58 ± 4.0 ng/mL
trough concentration ([4]; 5 mg/day): 17.3 ± 7.4 ng/mL
elimination of the drug via the GI tract ([4]; human, in vivo): 91%
metabolism ([4]; human, in vivo): intestinal and hepatic CYP3A4 enzyme family
time to near steady-state concentrations ([4]; loading dose of 3 times the maintenance dose, most patients): ≤ 1 days
mean time-to-peak concentration ([4]; healthy subjects): 1 h
mean time-to-peak concentration ([4]; renal transplant recipients): 2 h
typical serum levels of patients ([4]; patients on rapamycin [MacDonald, 2000]): 8 to 12 ng/mL
half-lives ([4]; pediatric patients 5–11 years): shorter
oral clearances ([4]; pediatric patients 5–11 years): greater
dose dependence of concentrations ([4]; stable renal transplant patients, between 3 and 12 mg/m^2): dose proportional
major side effects ([5]; adult organ rejection trials, 2 mg or 5 mg daily with cyclosporine and corticosteroids): thrombocytopenia, hypercholesteremia, hypertriglyceridemia, and diarrhea
toxicities of CTC Grade III and IV ([5]; pediatric kidney transplantation, with corticosteroids and MMF): stomatitis, hypercholesteremia, and hypertriglyceridemia
toxicity in single dosing studies ([5]; single doses ranging from 3–21 mg/m^2): No toxicity
mean hemoglobin and platelet counts, untreated vs rapamycin treated mice ([6]; 5 mg/kg IP daily): not significantly different
time to normalization of WBC after instituting therapy ([6]; 5 mg/kg IP daily): 7 to 10 days
weights of treated versus untreated groups ([6]; 5 mg/kg IP daily): not significantly different
average time from diagnosis to death ([6]; 5 mg/kg IP daily, N=34, untreated 12 days (N=23), p<0.001): 30 days
extension of survival vs untreated mice ([6]; 5 mg/kg IP daily, single agent, advanced disease): ~3 fold
WBC nadir of the typical mouse of FIG. 8 ([6]; after 14 days of rapamycin, WBC 28.8 at presentation): 3.2
Plt, mean ([6]; D0): 695000 µL⁻¹
WBC, mean ([6]; D0): 47800 µL⁻¹
Weight, mean ([6]; D0): 25.6 grams
Plt, mean ([6]; D7): 584000 µL⁻¹
WBC, mean ([6]; D7): 18500 µL⁻¹
Weight, mean ([6]; D14): 28.1 grams
Plt, mean ([6]; at sacrifice): 573000 µL⁻¹
WBC, mean ([6]; at sacrifice): 31000 µL⁻¹
Weight, mean ([6]; at sacrifice): 28.10 grams
Plt, mean ([6]; d21): 526000 µL⁻¹
WBC, mean ([6]; d21): 14300 µL⁻¹

B1: rmIL-7: recombinant mouse IL-7 (rmIL-7) (Leinco Technologies, Inc.) (protein, UniProt P10168 26-154, looked up)
Interleukin-7: ECHIKDKEGKAYESVLMISIDELDKMTGTDSNCPNNEPNFFRKHVCDDTKEAAFLNRAARKLKQFLKMNISEEFNVHLLTVSQGTQTLVNCTSKEEKNVKEQKKNDACFLKRLLREIKTCWNKILKGSI
increase in proliferation (#781 cell line): 16 fold
increase in proliferation (ALL cell line #289; increasing rmIL-7 0–30 U/ml, no stroma, 4–5 days): 2.2 fold
reversal of rapamycin-induced growth inhibition (ALL cell line #289; rmIL-7 10 U/ml with rapamycin 1 ng/ml, 3 days): completely reverses
reversal of rapamycin's effect on cell growth (ALL cell line #289; rmIL-7 10 U/ml with rapamycin 100 ng/ml, 3 days, only partial): ~80 % of baseline
effect on YES expression in rapamycin-treated cells (YES proto-oncogene): completely rescued
increase in proliferation (cell line #420.2): 2.2 fold
concentration at which the response appears to plateau ([3]; cell lines #83, #781, T309, #289, #420.2): 10–30 U/ml
increase in proliferation (cell line #83): ~100 fold
effect on rapamycin-induced decrease in phosphor-p70S6 kinase ([7]; 10 U/ml IL-7 + 100 ng/ml rapamycin, listed as IL-7): reversed; also recorded: restored to baseline
p70S6 kinase total protein levels ([7]; 100 ng/ml rapamycin or 10 U/ml IL-7): unchanged
increase in proliferation (cell line T309): 3.7 fold
proliferation (A20 mature B cell line): not affected
